Source: patent publication US11458118B2, “Methods and pharmaceutical compositions for the treatment of diseases associated with reduced CFTR function” (INSERM (INSTITUT NATIONAL DE LA SANTÉ ET DE LA RECHERCHE …, priority 2017, dated 2022)
Entries after “also recorded” stand apart in the source; their conditions may differ.

How the values were obtained:
F508del-CFTR [1] = experiment: Whole-cell patch-clamp of CFTR Cl- channel activity in CFBE41o-/F508del cells; assay type: cell-based, human; conditions: for increase of Cl- currents in treated vs untreated F508del-CFTR cells: pA/pF values at +80 mV
Protocol: (§1) The CFBE41o−cells purchased from Professor D. C.
Whole-cell patch-clamp recordings were obtained with the patch clamp system Port-a-Patch® (Nanion Technologies GmbH, Germany) as previously described [74;75]. Untreated or AEBSF treated cells were incubated with the external solution (140 mM NaCl, 2 mM CaCl2, 1 mM MgCl2, 10 mM Hepes, 5 mM D-glucose monohydrate, pH 7.4, 298 mOsmol) before recording. The internal solution used was 50 mM CsCl, 10 mM NaCl, 60 mM Cs-Fluoride, 20 mM EGTA, 10 mM Hepes/CsOH, and 5 mM Mg-ATP (Mg salt); pH 7.2; 285 mOsmol. CFTR activation and CFTR inhibition was done using the CFTR-activator ([…] and […] both from Sigma) and the CFTR-inhibitor ([…], Sigma) solution respectively, that were added to the external solution. Voltage steps (100 ms) from a holding potential of −80 mV, from −80 mV to +80 mV (10 mV increments) were applied. Data were captured using the Patchmaster program (Nanion Technologies GmbH, Germany) and currents normalized by membrane capacitances to remove variability due to differences in the cell sizes. Results were presented as graphic representations of I/V relationship and as bar graphs after statistical analysis of the normalized values, at +80 mV.

BiP = BiP expression by western blot in cells expressing F508del-CFTR (UPR reporter); assay type: cell-based, human; conditions: 300 μM AEBSF, total cell lysates
Protocol: as §1
(§2) Untreated or AEBSF treated cells were rinsed twice with cold PBS. For total cell lysate preparation, cells were lysed in RIPA buffer (25 mM Tris-HCl pH 7.5, 150 mM NaCl, 1% Triton X-100, 1% Na-Deoxycholate, 0.1% SDS, 10 mM iodoacetamide, 100 μM PMSF) supplemented with fresh protease-inhibitor cocktail (Complete tablets—EDTA free, Roche, Basel, Switzerland) added extemporaneously at a final concentration of 40 μl/ml (30 min on ice). Lysates were centrifugated (15 min, 16000 g, 4° C.). For nuclear preparation, cells were washed twice with cold PBS, and lysed with buffer A (10 mM HEPES pH 7.9, 1.5 mM MgCl2, 10 mM KCl, 2 mM EDTA, 0.5 mM DTT, 0.20% NP40 and protease-inhibitor cocktail) during 15 min at 4° C. Lysates were then centrifuged (1,500×g, 2 min, 4° C.) and the supernatants (cytosolic fraction) were removed in a new tube. […] Protein concentrations were determined using Lowry's methodology with the bovine serum albumin used as a standard.
(§3) For each sample equal amount of total or nuclear proteins was loaded on a polyacrylamide gel and resolved by SDS-PAGE (10%). […] Blots were developed by enhanced chemiluminescence kit (ECL Plus, GE Healthcare) and analyzed using Chemi-Smart 5100 ECL imaging system (Vilber Lourmat). The relative intensity of each band was quantified by densitometry using BIO-1D software (Vilber Lourmat). […]

ATF6 = ATF6 expression and activation by western blot (total lysates, nuclear fractions) in cells expressing F508del-CFTR; assay type: cell-based, human; conditions: 300 μM AEBSF
Protocol: as §1
Untreated or AEBSF treated cells were rinsed twice with cold PBS. For total cell lysate preparation, cells were lysed in RIPA buffer (25 mM Tris-HCl pH 7.5, 150 mM NaCl, 1% Triton X-100, 1% Na-Deoxycholate, 0.1% SDS, 10 mM iodoacetamide, 100 μM PMSF) supplemented with fresh protease-inhibitor cocktail (Complete tablets—EDTA free, Roche, Basel, Switzerland) added extemporaneously at a final concentration of 40 μl/ml (30 min on ice). Lysates were centrifugated (15 min, 16000 g, 4° C.). For nuclear preparation, cells were washed twice with cold PBS, and lysed with buffer A (10 mM HEPES pH 7.9, 1.5 mM MgCl2, 10 mM KCl, 2 mM EDTA, 0.5 mM DTT, 0.20% NP40 and protease-inhibitor cocktail) during 15 min at 4° C. Lysates were then centrifuged (1,500×g, 2 min, 4° C.) and the supernatants (cytosolic fraction) were removed in a new tube. The pellet was washed twice in buffer B (Buffer A without NP40) and lysed with buffer C (20 mM HEPES pH 7.9, 1.5 mM MgCl2, 450 mM KCl, 2 mM EDTA, 2 mM EGTA, 0.5 mM DTT, 25% Glycerol and protease-inhibitor cocktail) during 1 h vortexing 2200 rpm. Lysates were then centrifuged (14,000×g, 10 min, 4° C.) and supernatant (nuclear fraction) was removed in a new tube. Protein concentrations were determined using Lowry's methodology with the bovine serum albumin used as a standard.
For each sample equal amount of total or nuclear proteins was loaded on a polyacrylamide gel and resolved by SDS-PAGE (10%). Samples were then transferred onto a PVDF membrane (EMD Millipore, Billerica, Mass., United States). After blotting, membranes were blocked with 5% (w/v) non-fat dried skimmed milk in PBS-0.1% Tween20 (PBST). Blots were then probed overnight at 4° C. with the primary antibodies listed hereafter: Rabbit polyclonal anti-ATF6 antibody (#09-069, EMD Millipore), Rabbit polyclonal anti-S1P antibody (H-300) (#SC-20757, SantaCruz Biotechnology), Rabbit polyclonal anti-GRP78 antibody (H-129) (#SC-13968, SantaCruz Biotechnology). Membranes were further incubated 1 h at room temperature with the appropriate horseradish peroxidase (HRP) conjugated secondary antibody diluted in PBST (1/20,000): Goat anti-rabbit (#A0545, Servilab). Blots were developed by enhanced chemiluminescence kit (ECL Plus, GE Healthcare) and analyzed using Chemi-Smart 5100 ECL imaging system (Vilber Lourmat). The relative intensity of each band was quantified by densitometry using BIO-1D software (Vilber Lourmat). Each value was normalized by blue coomassie staining or the G3PDH signal obtained in the same lane on the same blot probed with mouse monoclonal antibody anti-G3PDH (#H86504M, Meridian Life Science®, Inc.) diluted in PBST (1/30,000).

S1P = S1P expression by western blot in cells expressing F508del-CFTR; assay type: cell-based, human; conditions: 300 μM AEBSF, total cell lysates
Protocol: as §1, §2, §3

F508del-CFTR [2] = experiment: Cell surface detection of CFTR in BHK cells expressing HA-tagged F508del-CFTR; assay type: cell-based, hamster; conditions: for presence of F508del-CFTR within membranes: after treatment of cells expressing F508del-CFTR
Protocol: BHK cells stably expressing WT-CFTR or F508del-CFTR were graciously given by Dr. John W. Hanrahan (McGill University). A 3-Haemaglutinin (HA)-epitope tag was inserted in the fourth extracellular loop of CFTR in these cell lines. Cells were cultured in Dulbecco's modified Eagle medium (Lonza, Switzerland) supplemented with 10% fetal bovine serum. Cells were washed three times with cold 1×PBS (Eurobio, France) plus bovine serum albumine (BSA, 0.5%) and incubated 1 h at 4° C. with an anti-HA antibody (BioLegend, USA) diluted (1/250) in 1×PBS plus 0.5% BSA. Cells were washed three times with cold 1×PBS, scraped and centrifugated (300×g, 3 min, 4° C.). Cells pellets were suspended in RIPA buffer for 30 min on ice, centrifuged (16000×g, 15 min, 4° C.) and total protein concentration of supernatant was determined using Lowry's method, using BSA as a standard. Protein G magnetic beads (Thermo Fisher Scientific, USA) were equilibrated with cold RIPA buffer. Lysates were then incubated with the magnetic beads (100 μl of magnetic beads per mg of total protein) at 4° C. during for 2 h. Beads were then rinsed three times in cold RIPA buffer and proteins were eluted with 2× sample buffer containing 2-mercaptoethanol (20 min, 37° C.). […] Membrane was blocked with 5% (w/v) dried skimmed milk in PBS (0.1%) with Tween20, probed overnight at 4° C. with the anti-HA antibody (1/500) in 5% non-fat dried milk in PBST. Membranes were further washed and incubated 1 h at RT with HRP conjugated anti-mouse antibody (1/20000; Santa Cruz Biotechnology, USA). Blots were developed by enhanced chemiluminescence kit (ECL Plus, GE Healthcare, USA) and analyzed using Chemi-Smart 5100 ECL imaging system (Vilber Lourmat, Germany).

[3] = system: cells expressing Wt-CFTR and F508del-CFTR; experiment: Cell toxicity observed in treated cells; conditions: in the used concentration (300 μM AEBSF; 10 μM PF-429242)
Protocol: The CFBE41o−cells purchased from Professor D. C. Gruenert (San Francisco, Calif., U.S.A.) were human bronchial epithelial cells endogenously expressing the F508del-CFTR obtained from a CF patient homozygous for the F508del mutation [51;52]. The cells used in experiments were the transduced CFBE41o−/WT also called CFBE41o−/corrected (CFBE41o−/corr) and CFBE41o−/F508del cells, and were cultured as previously described. These cells will be also called cells expressing Wt-CFTR and cells expressing F508del-CFTR in the manuscript. Cell culture media and supplements were purchased from Lonza (Basel, Switzerland) and CliniSciences (Nanterre, France). To inhibit ATF6 activation, cells were incubated with 300 μM of the serine protease inhibitor 4-(2-Aminoethyl) benzenesulfonyl fluoride hydrochloride (AEBSF) purchased from Servilab. In some experiments, ATF6 activation was blocked by the use of 10 μM PF-429242 (4-[(Diethylamino)methyl]-N-[2-(2-methoxyphenyl)ethyl]-N-(3R)-3-pyrrolidinylbenzamide, from Tocris).

[4] = system: cells expressing F508del-CFTR; experiment: 2-DE and mass spectrometry of differentially expressed proteins after treatment; assay type: cell-based, human; conditions: AEBSF treated vs untreated cell lysates, above 2 fold, MS identification
Protocol: 100 μg of total proteins from untreated or AEBSF treated cells were used for experiments. Each protein sample was first diluted in DeStreak Rehydration Solution (GE Healthcare, Chalfont St Giles, UK) which contains optimized concentrations of urea, thiourea, CHAPS, DeStreak Reagent and appropriate IPG buffer. Passive rehydration of Immobiline DryStrip gels (7 cm, pH 3-10 NL, GE Healthcare) with samples was performed during 8 hours. Once rehydration completed, Immobiline DryStrip gel are transferred in the Manifold on Ettan IPGphor 3 (GE Healthcare) for first dimension isoelectric focusing (IEF). IEF protocol used is divided in five steps: 1—Step 300 V, 200 Vhr; 2—Grad 1000 V, 300 Vhr; 3—Grad 5000 V, 4500 Vhr; 4—Step 5000V, 9000 Vhr; 5—Step 300V, 12-15 h. Second-dimension separation is performed immediately after IEF is completed. Immobiline DryStrip gels are equilibrated (15 min at room temperature) in two SDS equilibration buffers (6 M urea, 75 mM Tris-HCl pH=8.8, 30% Glycerol, 2% SDS, 0.0002% bromophenol blue+DTT or iodoacetamide) before SDS-PAGE. Electrophoresis was performed with lab-cast gels (1 mm, Bis-Tris 10%) in 1× Tris-Glycine-SDS buffer (BioRad, Hercules, Calif., USA) at 120 V for 2 h 30. […] Gel alignment, spot detection and quantification were done using the PDQuest software (PDQuest Basic-8.0.1, BioRad). […]

[5] = system: S1P-mediated cleavage of ATF6; conditions: from references [69], [78]; cited from earlier work

Row | Structure (SMILES) | increase of Cl- currents in treated vs untreated F508del-CFTR cells (F508del-CFTR [1]; 300 μM AEBSF, 8 hours) | fold increase of the F508del-CFTR's Cl- function (F508del-CFTR [1]; 300 μM AEBSF, 8 hours, vs untreated cells) | mean cell Cl- currents (F508del-CFTR [1]; CFBE41o-/F508del cells, 300 μM AEBSF, 8 hours, at +80 mV, untreated 32.98±14.71, Wt-CFTR 118.8±21.09) | BiP expression, treated vs untreated cells for each time point (BiP) | BiP expression over time in treated cells (BiP; over time) | ATF6 activation (cleaved form in nuclear fraction) compared to the zero time point (ATF6; nuclear fractions) | cleaved 50 kDa ATF6 in nuclear fraction, treated vs untreated cells for each time point (ATF6; nuclear fractions) | full length ATF6 expression compared to the zero time point (ATF6; total cell lysates) | full length ATF6 expression, treated vs untreated cells for each time point (ATF6; total cell lysates) | S1P expression over time in treated cells (S1P; 0.5, 1, 2, 4 or 8 hours, CFBE41o-/F508del cells, hydrochloride) | S1P expression, treated vs untreated cells for each time point (S1P; F508del-CFTR cells) | mature form of CFTR (C band, 170 kDa) at the cell surface (F508del-CFTR [2]; BHK cells expressing HA-tagged F508del-CFTR, anti-HA pull-down and immunoblot) | presence of F508del-CFTR within membranes (F508del-CFTR [2]) | cell toxicity [3] | differentially expressed proteins after treatment [4] | inhibition of ATF6 cleavage upon ER stress [5] | increase of Cl- currents in treated vs untreated F508del-CFTR cells (F508del-CFTR [1]; 10 μM PF-429242, 8 hours) | mean cell Cl- currents (function of F508del-CFTR) (F508del-CFTR [1]; CFBE41o-/F508del cells, 10 μM PF-429242, 8 hours, at +80 mV, untreated 32.98±14.71)
1 | Cl.NCCc1ccc(S(=O)(=O)F)cc1 [AEBSF, 4-(2-Aminoethyl) benzenesulfonyl fluoride hydrochloride] | +153% | 2.5 fold | 83.42±11.51 pA/pF | Significant decreases at the 4 and 8 hours time points | significant decrease of BiP expression was observed after 4 hours of treatment | significant decreases at the 2 and 4 hours treatment | significant decreased expression of the 50 kDa form of ATF6, from 1 to 8 hours | significant increased expression was observed after 4 and 8 hours of treatment | significant decreases after 0.5, 1 and to 2 hours and a significant increase after 8 hours | significance was only observed at the 2 hours time point; also recorded: no significant variation was observed over time except for the 2 hours time point | no significant difference | only observed after AEBSF treatment | increase the presence of F508del-CFTR within membranes | No obvious cell toxicity was observed | HNRNPH1 and HNRH3 were decreased and that PDIA3 (Grp58), HSP7C, GRP75 and HSP71 were increased | inhibit the proteolysis of ATF6 | – | –
2 | CCN(CC)Cc1ccc(C(=O)N(CCc2ccccc2OC)[C@@H]2CCNC2)cc1 [PF-429242, 4-[(Diethylamino)methyl]-N-[2-(2-methoxyphenyl)ethyl]-N-(3R)-3-pyrrolidinylbenzamide] | – | – | – | – | – | – | – | – | – | – | – | – | increase the presence of F508del-CFTR within membranes | – | – | efficiently blocks the S1P-mediated cleavage of ATF6 upon ER stress | +152% | 82.67±22.26 pA/pF
